According to patent US7504537B2, “Hydroxamic acid derivative and MMP inhibitor containing the same as active ingredient” (Dainippon Sumitomo Pharma Co., Ltd., priority 2001, dated 2009):
pIC50: −log10 of the molar value.

Assays:
Format in all cases: biochemical
MMP-3 = molecular target: T1, MMP-3 (Homo sapiens, UniProt P08254); test: Test 1 Test on MMP-3 inhibiting activity (fluorogenic peptide substrate); details: activated MMP-3, 37° C.; read-out: MMP-3 inhibition activity value
T1 construct: C-terminal truncated cDNA in which the cDNA encodes human prostromelysin; made in house; host or cells: E. coli
T1 sequence (P08254 100-272 limits assumed): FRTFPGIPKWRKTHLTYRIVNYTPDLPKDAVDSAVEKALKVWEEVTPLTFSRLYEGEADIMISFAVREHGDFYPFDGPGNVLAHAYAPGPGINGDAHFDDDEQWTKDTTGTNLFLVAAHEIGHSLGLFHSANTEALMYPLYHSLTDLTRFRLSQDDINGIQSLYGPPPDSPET
Procedure: Test 1 Test on MMP-3 Inhibiting Activity
C-terminal truncated cDNA in which the cDNA encodes human prostromelysin, was subcloned (proMMP-3, cDNA sequence in Nature, 348, 699-704 (1990)), was expressed in E. coli and then, the expressed protein was purified in accordance with the method described in Biochemistry 30, 6476-6483 (1991). proMMP-3 activation was carried out by treating with 1 mM 4-aminophenyl mercuric acetate for 60 minutes at 37° C.
Enzyme activity test was conducted by the method of C. G. Knight (FEBS Lett., 296(3), 263-266 (1992)).
A mixture of activated MMP-3 (20 nM, 10 μl), buffer solution (70 μl, pH 7.5 solution containing 100 mM Tris-HCl solution, 10 mM calcium chloride solution, 100 mM sodium chloride solution and 0.05% Brij-35 solution), MOCAc-Pro-Leu-Gly-Leu-A2pr(DNP)-Ala-Arg-NH2 in 0.1% DMSO solution (100 μM, 10 μl) and a test compound in DMSO solution was incubated for 1.5 hours at 37° C. The mixture was put on a 96 well-plate (100 μl/well) and the plate was cultured at 37° C. The enzyme activity in the presence of the compound was measured based on fluorescence intensity (λex 320 nm, λem 405 nm), and IC50 was calculated.

MMP-14 (MT1-MMP) = molecular target: T2, MMP-14 (MT1-MMP) (Homo sapiens, UniProt P50281); test: Test 5 MMP-14 (MT1-MMP) inhibiting activity test; details: human recombinant MT1-MMP, 37° C.; read-out: MMP-14 inhibition activity value
T2 construct: purchased Biogenesis, supplied by Cosmobio (Nakarai Tesku)
Procedure: Test 5 MMP-14 (MTI-MMP) Inhibiting Activity Test
Human recombinant MTI-MMP used the product prepared by Biogenesis and supplied by Cosmobio (Nakarai Tesku).
An assay buffer solution (70 μl, pH 7.5 solution containing 0.1M Tris-HCl solution, 0.1M calcium chloride solution, 10 mM sodium chloride solution and 0.05% Brij-35 solution), 0.1 w/w % a compound in DMSO (10 μl), MMP substrate solution (MOCAc-Pro-Leu-Gly-Leu-A2pr(DNP)-Ala-Arg-NH2 (Peptide Lab.) diluted with the assay buffer solution (50 μM, 10 μl)) and human recombinant MT1-MMP (0.4 pg/10 μl/well) were well agitated under stirring. The enzyme activity of the mixture was measured based on fluorescence intensity (λex 320 nm/λem 405 nm) by a fluorescence reader. After the mixture was incubated at 37° C. for 0.5 hour, the fluorescence intensity (λex 320 nm/λem 405 nm) was measured every hour, and IC50 was calculated.
The inhibition value was calculated by withdrawing average value of blank well from fluorescence mean value of well in which MT1-MMP was added. As the blank was used the mixed solution prepared by adding assay buffer (10 μl) instead of MT1-MMP solution.

MMP-9 = MMP-9 (Homo sapiens, UniProt P14780); test: Test 4 MMP-9 inhibiting activity test (biotin labeled gelatin); details: activated human MMP-9, biotin labeled gelatin; read-out: MMP-9 inhibition activity value
MMP-9, sequence (P14780 107-707 limits assumed): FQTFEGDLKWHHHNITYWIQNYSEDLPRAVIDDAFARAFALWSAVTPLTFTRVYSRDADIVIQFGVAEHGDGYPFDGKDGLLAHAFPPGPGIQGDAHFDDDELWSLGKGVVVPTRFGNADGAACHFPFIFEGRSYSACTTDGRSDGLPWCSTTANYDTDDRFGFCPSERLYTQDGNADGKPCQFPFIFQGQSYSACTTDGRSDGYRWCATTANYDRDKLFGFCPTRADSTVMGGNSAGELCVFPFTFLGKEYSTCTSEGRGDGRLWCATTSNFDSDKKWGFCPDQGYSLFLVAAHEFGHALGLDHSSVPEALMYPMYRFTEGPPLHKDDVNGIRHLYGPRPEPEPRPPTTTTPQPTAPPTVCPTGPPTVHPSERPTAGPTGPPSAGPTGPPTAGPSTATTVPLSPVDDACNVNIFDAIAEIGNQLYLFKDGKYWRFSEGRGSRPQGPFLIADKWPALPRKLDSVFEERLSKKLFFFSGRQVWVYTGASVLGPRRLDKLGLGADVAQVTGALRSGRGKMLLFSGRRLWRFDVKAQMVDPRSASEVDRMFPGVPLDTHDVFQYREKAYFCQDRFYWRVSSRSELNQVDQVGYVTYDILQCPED
Procedure: Test 4 MMP-9 Inhibiting Activity Test
A mixture of buffer solution (190 μl; pH 7.5 solution containing 50 mM Tris-HCl solution, 0.5 m sodium chloride solution and 5 mM calcium chloride solution), human MMP-9 (10 μl) and trypsin solution (20 μl; trypsin 3 mg in activated buffer (5 ml)) was incubated at 37° C. for 10 minutes. Thereto was added aprotinine solution (20 μl; aprotinine (3 mg) in buffer (5 ml)) and the mixture was incubated at 37° C. for 10 minutes, followed by addition of buffer (2 ml). The mixture was preserved under cooling with ice until use.
A mixture of DMSO solution (2 μl) containing definite concentration of the compound, biotin labeled gelatin (188 μl) and activated MMP-9 solution (10 μl) was put on a 96 well-assay plate (protein nonabsorbance type), well agitated, and incubated at 37° C. for 1 hour. This solution was transferred to Streptavidin-coating plate, and agitated at 15° C. to 30° C. for 30 minutes. And then the solution was washed with TTC buffer solution (200 μl) three times. Thereto was added Streptavidin-POD (200 μl) and the mixture was agitated at 15° C. to 25° C. for 60 minutes, followed by washing with TTC buffer (200 μl) three times. Then, ABTS solution (200 μl) was added thereto and after standing at room temperature for 40 minutes, furuorescence intensity was measured at 405 nm and IC50 was calculated.
In case of the above test, DMSO (2 μl) was used as a control instead of a sample solution. In the case of a blank, DMSO (2 μl) instead of the sample solution and the solution (10 μl) prepared in the same manner as preparation of […] but without adding 1.2 Uhuman MMP-9, instead of activated MMP-9 solution (10 μl), were used.

CS(=O)(=O)c1ccc(Oc2ccc(CC3Sc4ccc(C(=O)O)cc4N(CC(=O)NO)C3=O)cc2)cc1 (stereo not drawn) [Example 50]
pIC50 (MMP-3): 7.42 | pIC50 (MMP-14 (MT1-MMP)): < 6.00 | pIC50 (MMP-9): 6.61

COc1ccc(Oc2ccc(CC3Sc4ccc(C(=O)O)cc4N(CC(=O)NO)C3=O)cc2)cc1 (stereo not drawn) [compound 1, reference compound]
pIC50 (MMP-3): 7.06 | pIC50 (MMP-14 (MT1-MMP)): 7.06 | pIC50 (MMP-9): < 7.00
